Experimental data reported in ChEMBL document CHEMBL1201862, “PubChem BioAssay data set” (2004).
Calls of active or inactive are those of the source.

Experiments:
Cytochrome P450 3A4 = Cytochrome P450 3A4 (Homo sapiens, UniProt P08684);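 note: CYP3A4 tested as one member of a cytochrome P450 panel screen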
Cytochrome P450 1A2 = target: T1, Cytochrome P450 1A2 (Homo sapiens, UniProt P05177);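 note: PubChem cytochrome P450 panel assay, CYP1A2 panel member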
T1 sequence (P05177 whole entry): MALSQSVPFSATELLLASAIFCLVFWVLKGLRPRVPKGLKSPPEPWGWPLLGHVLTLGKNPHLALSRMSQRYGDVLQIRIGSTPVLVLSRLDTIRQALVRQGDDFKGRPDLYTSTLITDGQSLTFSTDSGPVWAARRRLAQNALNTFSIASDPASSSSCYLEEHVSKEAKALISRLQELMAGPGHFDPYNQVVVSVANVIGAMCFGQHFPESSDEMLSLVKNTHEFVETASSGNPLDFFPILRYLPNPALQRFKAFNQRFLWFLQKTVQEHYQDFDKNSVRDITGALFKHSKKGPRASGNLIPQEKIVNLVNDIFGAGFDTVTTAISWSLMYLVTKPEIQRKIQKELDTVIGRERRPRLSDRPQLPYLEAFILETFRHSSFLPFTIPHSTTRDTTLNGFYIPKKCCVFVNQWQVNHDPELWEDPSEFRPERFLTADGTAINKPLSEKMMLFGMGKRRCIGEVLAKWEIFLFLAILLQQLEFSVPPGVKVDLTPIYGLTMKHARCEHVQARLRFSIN

Cytochrome P450 2C9 = Cytochrome P450 2C9 (Homo sapiens, UniProt P11712)
Cytochrome P450 2C9, sequence (P11712 whole entry): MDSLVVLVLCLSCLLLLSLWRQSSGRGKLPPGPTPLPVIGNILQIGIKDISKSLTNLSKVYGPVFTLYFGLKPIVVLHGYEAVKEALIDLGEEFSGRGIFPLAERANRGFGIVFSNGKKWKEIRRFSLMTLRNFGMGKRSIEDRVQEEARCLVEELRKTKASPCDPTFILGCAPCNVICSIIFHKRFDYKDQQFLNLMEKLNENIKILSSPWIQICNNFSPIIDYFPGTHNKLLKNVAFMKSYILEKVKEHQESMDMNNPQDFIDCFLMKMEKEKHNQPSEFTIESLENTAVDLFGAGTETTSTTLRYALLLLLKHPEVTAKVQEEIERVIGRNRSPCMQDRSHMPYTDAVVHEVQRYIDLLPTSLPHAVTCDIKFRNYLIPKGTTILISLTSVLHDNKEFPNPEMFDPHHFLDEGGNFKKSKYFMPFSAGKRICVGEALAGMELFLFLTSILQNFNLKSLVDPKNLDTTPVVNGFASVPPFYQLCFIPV

[1] = target: T2, Heat shock factor protein 1 (Mus musculus, UniProt P38532); assay: enhancement of HSF1-driven luciferase signal – cell-based, NIH3T3, luminescence, dose retest, confirmation (AID 435004); format: functional;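 note: stress induced by proteasome inhibitor MG132 added 30 min after compound; luciferase reporter driven by HSF1 response element in NIH3T3 cells; actives raise luminescence as potentiators of the MG132 stress response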
T2 sequence (P38532 whole entry): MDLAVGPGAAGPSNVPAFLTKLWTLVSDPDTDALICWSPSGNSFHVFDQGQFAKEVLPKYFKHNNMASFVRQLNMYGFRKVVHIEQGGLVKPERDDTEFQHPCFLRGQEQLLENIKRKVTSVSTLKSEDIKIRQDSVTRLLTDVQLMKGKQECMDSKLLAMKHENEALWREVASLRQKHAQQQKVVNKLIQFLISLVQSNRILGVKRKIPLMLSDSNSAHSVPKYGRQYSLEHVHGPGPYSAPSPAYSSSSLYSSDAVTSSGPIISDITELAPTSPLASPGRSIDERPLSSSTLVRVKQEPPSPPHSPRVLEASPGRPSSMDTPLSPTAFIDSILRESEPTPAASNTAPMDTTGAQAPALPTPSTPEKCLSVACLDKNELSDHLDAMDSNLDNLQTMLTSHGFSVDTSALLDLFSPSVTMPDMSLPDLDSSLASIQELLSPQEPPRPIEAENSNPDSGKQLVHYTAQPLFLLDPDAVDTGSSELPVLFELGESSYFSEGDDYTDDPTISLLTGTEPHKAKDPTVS

[2] = target: FAD-linked sulfhydryl oxidase ALR (Homo sapiens, UniProt P55789); assay: ALR-catalysed DTT oxidation blockers – biochemical, H2O2 detection, luminescence, cherry-pick, dose response (AID 493248)
FAD-linked sulfhydryl oxidase ALR, sequence (P55789 whole entry): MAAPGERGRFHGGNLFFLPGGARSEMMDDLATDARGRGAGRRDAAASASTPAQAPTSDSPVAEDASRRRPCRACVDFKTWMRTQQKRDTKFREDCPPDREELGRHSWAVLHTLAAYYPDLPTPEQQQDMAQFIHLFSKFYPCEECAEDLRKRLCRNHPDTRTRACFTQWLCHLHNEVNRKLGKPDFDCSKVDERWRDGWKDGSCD

[3] = Trypanosoma cruzi growth suppression in host cells – NIH3T3 host cells, beta-gal luminescence, confirmation (AID 2044); format: functional, cell-based;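 note: intracellular parasites grown in NIH/3T3 mouse fibroblasts as host cells; luminescent beta-galactosidase reporter signal from transgenic T. cruzi replicating inside host cells; inhibitors lower the luminescence signal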
[4] = NIH3T3 cell viability loss – ATP luminescence, mouse fibroblasts, counter-screen, dose response (AID 2010); format: functional, cell-based;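 note: cells exposed to compound for about 90 hours before reading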
[5] = microbe, parasite or virus in culture; format: functional; details: Mycobacterium tuberculosis
Cytochrome P450 2C19 = Cytochrome P450 2C19 (Homo sapiens, UniProt P33261); assay: Cytochrome panel assay with activity outcomes. Panel member name: p450-cyp2c19 Compounds with AC50 equal or less than 10 uM are considered active; format: functional
Cytochrome P450 2C19, sequence (P33261 whole entry): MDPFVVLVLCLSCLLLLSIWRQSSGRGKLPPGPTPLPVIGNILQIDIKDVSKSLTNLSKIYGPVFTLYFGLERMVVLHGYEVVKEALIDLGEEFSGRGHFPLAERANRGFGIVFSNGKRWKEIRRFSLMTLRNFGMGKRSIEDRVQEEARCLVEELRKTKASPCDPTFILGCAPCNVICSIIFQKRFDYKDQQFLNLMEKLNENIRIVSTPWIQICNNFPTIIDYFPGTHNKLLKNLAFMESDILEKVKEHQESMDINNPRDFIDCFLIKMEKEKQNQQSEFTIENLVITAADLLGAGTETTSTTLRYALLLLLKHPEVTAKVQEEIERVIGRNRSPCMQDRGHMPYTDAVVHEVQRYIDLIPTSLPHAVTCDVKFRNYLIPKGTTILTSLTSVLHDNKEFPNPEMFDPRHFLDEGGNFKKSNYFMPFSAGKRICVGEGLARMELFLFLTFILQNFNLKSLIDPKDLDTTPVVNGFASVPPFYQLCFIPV

[6] = loss of viability in HepG2 cells – cell-based, CellTiter-Glo, cherry-picked, cytotoxicity control for Shn3 inhibitor project, dose response (AID 624134); format: functional
[7] = non-specific 3'UTR reporter inhibition in Clone20-Shn3RL – cell-based, Renilla luciferase, cherry-picked, counter-screen for Shn3 inhibitor project, dose response (AID 624133); format: functional
[8] = target: T3, Corticotropin-releasing factor receptor 2/Corticotropin-releasing factor-binding protein (Homo sapiens, UniProt P24387+Q13324); assay: activators of CRF receptor 2 with binding protein – uHTS hits, confirmation (AID 602473); format: functional; details: read-out: EC50_Mean
T3 sequence (Q13324 whole entry): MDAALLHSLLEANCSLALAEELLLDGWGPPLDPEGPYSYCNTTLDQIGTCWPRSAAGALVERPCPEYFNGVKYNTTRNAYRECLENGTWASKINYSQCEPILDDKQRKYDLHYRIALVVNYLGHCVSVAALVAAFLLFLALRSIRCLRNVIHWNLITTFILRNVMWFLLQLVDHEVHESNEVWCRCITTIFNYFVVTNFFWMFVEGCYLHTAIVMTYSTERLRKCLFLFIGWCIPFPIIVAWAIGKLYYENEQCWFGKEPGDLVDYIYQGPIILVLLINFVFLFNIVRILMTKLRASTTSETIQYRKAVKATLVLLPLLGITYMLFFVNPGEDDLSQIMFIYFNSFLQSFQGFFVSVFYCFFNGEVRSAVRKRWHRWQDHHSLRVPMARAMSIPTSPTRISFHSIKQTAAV
T3 sequence (P24387 whole entry): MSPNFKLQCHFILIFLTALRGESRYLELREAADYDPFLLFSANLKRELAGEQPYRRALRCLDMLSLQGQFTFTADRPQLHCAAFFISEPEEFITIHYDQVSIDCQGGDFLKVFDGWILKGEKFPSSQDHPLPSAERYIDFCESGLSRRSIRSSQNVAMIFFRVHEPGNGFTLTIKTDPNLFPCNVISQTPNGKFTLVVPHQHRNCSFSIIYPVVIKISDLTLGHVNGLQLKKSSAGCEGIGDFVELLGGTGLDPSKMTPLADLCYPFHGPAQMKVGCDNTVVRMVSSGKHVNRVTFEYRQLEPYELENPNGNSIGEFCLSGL

[9] = reduction of Shn3 3'UTR-driven luciferase in osteoblasts – cell-based, Clone20 osteoblasts, firefly luciferase, cherry-picked, dose response (AID 624132); format: functional;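 note: firefly luciferase luminescence from reporter carrying the Shn3 3'UTR in osteoblasts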
[10] = viability of PTEN-deleted HCT116 cells – cell-based, HCT116 PTEN knockout, dose response (AID 1047); format: functional;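 note: HCT116 colon tumor cells with PTEN knocked out; cells exposed to compound for 60 hours before readout; potency for loss of cell viability measured by luminescence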
[11] = viability of HCT116 lacking mutant beta-catenin – cell-based, human colon tumor, dose response (AID 1045); format: functional;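 note: HCT116 colon tumor cells with beta catenin knocked out; cells exposed to compound for 60 hours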
[12] = Luminescence Cell-Based Dose Retest to Confirm Inhibitors of Cancer Stem Cells. [Related pubchem assays (depositor defined):AID2717, AID2721]; format: functional; details: Homo sapiens
[13] = tested on: Streptococcus sp. 'group A'; assay: Streptococcus pyogenes SK(-)GAS viability under kanamycin – luminescence, BacTiterGlo, confirmation, counter-screen for streptokinase expression inhibitor project, dose response (AID 1900); format: functional, organism-based
Streptococcus = assay: GAS UMAA2166 growth inhibition – luminescence, BacTiterGlo, counter-screen for streptokinase expression inhibitor project, dose response (AID 1915); format: functional, organism-based;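 note: potency for reduction of bacterial viability or growth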
[14] = target: Luciferin 4-monooxygenase (Photinus pyralis, UniProt P08659); assay: inhibition of purified Photinus pyralis luciferase – biochemical, luminescence, dose response (AID 1891)
Luciferin 4-monooxygenase, sequence (P08659 whole entry, the tested form may be a part): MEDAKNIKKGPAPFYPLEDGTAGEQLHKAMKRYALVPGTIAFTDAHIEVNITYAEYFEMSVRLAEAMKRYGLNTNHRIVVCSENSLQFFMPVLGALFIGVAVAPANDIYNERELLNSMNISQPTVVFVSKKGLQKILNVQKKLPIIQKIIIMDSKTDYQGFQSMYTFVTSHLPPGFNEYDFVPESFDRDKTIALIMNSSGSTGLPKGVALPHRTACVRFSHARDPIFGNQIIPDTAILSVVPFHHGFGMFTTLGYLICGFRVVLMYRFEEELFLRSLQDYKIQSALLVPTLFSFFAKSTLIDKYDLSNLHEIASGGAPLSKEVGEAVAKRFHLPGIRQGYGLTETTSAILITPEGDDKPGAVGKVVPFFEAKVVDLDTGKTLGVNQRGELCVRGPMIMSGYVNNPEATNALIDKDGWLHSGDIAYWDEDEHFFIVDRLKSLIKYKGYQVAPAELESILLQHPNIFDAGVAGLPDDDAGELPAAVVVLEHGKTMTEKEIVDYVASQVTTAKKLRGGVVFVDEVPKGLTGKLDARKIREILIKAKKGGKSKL

[15] = target: T4, RNA-binding protein pos-1 (Caenorhabditis elegans, UniProt G5EF15); assay: disruptors of C. elegans POS-1 RNA interaction – biochemical, fluorescence polarization, dose response (AID 1964);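 note: purified POS-1 fused to maltose binding protein made in E. coli; potency of compounds blocking POS-1 binding to fluorescent RNA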
T4 sequence (G5EF15 whole entry): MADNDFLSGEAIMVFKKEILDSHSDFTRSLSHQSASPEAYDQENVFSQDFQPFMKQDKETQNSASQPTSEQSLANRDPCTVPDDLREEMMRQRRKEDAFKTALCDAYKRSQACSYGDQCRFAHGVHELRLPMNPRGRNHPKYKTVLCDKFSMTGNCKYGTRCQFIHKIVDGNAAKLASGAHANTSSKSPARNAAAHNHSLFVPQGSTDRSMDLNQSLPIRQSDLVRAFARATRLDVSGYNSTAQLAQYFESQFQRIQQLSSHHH

[16] = target: T5, Zinc finger protein mex-5 (Caenorhabditis elegans, UniProt Q9XUB2); assay: potency of MEX-5 RNA-binding blockers – biochemical, C. elegans, fluorescence polarization, dose response (AID 1960)
T5 sequence (Q9XUB2 whole entry): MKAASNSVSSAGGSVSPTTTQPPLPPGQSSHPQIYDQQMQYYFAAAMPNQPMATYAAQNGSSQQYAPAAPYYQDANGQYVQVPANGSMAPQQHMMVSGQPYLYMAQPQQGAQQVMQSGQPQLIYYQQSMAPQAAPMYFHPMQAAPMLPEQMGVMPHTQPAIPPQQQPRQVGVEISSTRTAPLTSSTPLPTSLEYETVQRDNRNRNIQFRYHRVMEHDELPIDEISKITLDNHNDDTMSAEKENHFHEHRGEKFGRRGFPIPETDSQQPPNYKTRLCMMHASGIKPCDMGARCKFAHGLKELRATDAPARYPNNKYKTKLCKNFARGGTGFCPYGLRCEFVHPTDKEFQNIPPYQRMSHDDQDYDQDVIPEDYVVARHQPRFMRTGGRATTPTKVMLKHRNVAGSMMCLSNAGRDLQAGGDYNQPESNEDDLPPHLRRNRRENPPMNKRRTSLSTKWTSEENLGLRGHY

[17] = Luminescence Cell-Based Dose Confirmation HTS to Identify Inhibitors of Platelet Dense Granule Release. [Related pubchem assays: 1663 (Primary HTS), 1678 (Summary of Project)]; format: functional

Cytochrome P450 3A4, sequence (P08684 whole entry): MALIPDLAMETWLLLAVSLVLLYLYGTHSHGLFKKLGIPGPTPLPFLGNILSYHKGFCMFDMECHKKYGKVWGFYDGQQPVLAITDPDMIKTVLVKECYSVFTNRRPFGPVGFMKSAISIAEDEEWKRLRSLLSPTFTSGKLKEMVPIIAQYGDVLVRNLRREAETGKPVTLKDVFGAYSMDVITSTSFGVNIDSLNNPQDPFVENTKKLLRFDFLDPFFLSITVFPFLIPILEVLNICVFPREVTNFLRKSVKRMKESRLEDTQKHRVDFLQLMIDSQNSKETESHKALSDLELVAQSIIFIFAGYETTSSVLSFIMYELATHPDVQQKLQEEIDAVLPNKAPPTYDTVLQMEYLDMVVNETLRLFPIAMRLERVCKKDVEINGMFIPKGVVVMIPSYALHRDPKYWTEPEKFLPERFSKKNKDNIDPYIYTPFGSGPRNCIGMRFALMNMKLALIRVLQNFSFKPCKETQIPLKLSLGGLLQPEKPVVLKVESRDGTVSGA

## Cc1cc(O)c(C(C)C)cc1NC(=O)Nc1cccc2ccccc12
Cytochrome P450 3A4
  AC50: 3.16 µM (inconclusive)
Cytochrome P450 1A2
  AC50: 0.794 µM (inconclusive)

## Cc1nn(C)c(Cl)c1S(=O)(=O)N[C@@H](c1ccccc1)[C@]1(C)C[C@H]1[C@@H](C)C(=O)Nc1ccc2ccccc2c1
Cytochrome P450 2C9
  AC50: 6.31 µM (inconclusive)
Cytochrome P450 1A2
  AC50: 5.01 µM (inconclusive)

## CC1CC(C)(C)N(C(=O)NC2CCCCC2)c2ccccc21 (centres undefined)
[1]
  EC50: > 260 µM (inactive)

## COc1ccc(N2CCN(C(=O)c3ccc(SC)cc3OC)CC2)cc1
[2]
  AC50: 6.05 µM (active)

## COc1ccc(NC(=O)c2[nH]c(C)c(C(C)=O)c2C)cc1S(=O)(=O)Nc1ccc(Br)cc1
[3]
  EC50: 1.12 µM (active)
[4]
  EC50: > 60 µM (not active)
[1]
  EC50: > 260 µM (inactive)

## N#CCCn1cc(/C=C2\NC(=S)N(c3ccccc3)C2=O)c(-c2ccc(-c3ccccc3)cc2)n1
[5]
  CC50: 38.2 µM (active)

## COc1cc(OC)cc(C(=O)NCC(=O)OC2CCOC2=O)c1 (centres undefined)
Cytochrome P450 2C19
  AC50: inconclusive
Cytochrome P450 1A2
  AC50: 0.0316 µM (inconclusive)

## CC(C)C(=O)C(C)(C)CCc1ccccn1
Cytochrome P450 1A2
  AC50: 2.51 µM (inconclusive)

## CC(C)Cc1ccc(C(C)C(=O)Nc2ccccc2O)cc1 (centres undefined)
[6]
  AC50: 6.63 µM (active)
[7]
  AC50: 4.26 µM (active)
[8]
  EC50: 5.7 µM (active)
[9]
  AC50: 1.89 µM (active)

## Cc1cc(C)n2cc(COc3ccc4ccccc4c3)nc2n1
[1]
  EC50: > 260 µM (inconclusive)

## CCNC(=S)N/N=C/c1ccc(-c2ccccc2)o1
[1]
  EC50: > 260 µM (inactive)

## COc1ccc2c(c1)N(CC[C@H]1CCCCN1C)c1ccccc1S2
Cytochrome P450 1A2
  AC50: 1.26 µM (inconclusive)

## COC(=O)N1CCC[C@@]2(CCN(C(=O)Nc3ccccc3)C2)C1
Cytochrome P450 1A2
  AC50: 12.6 µM (inconclusive)

## Cc1ccc(S(=O)(=O)c2cccc(S(=O)(=O)N3CCCC3)c2)cc1S(=O)(=O)N1CCCC1
[10]
  EC50: 35.7 µM (active)
[11]
  EC50: 28.3 µM (active)

## Nc1ncncc1-c1ccc([N+](=O)[O-])cc1
Cytochrome P450 2C19; read-out: AC50
  AC50: 10 µM (inconclusive)
Cytochrome P450 3A4
  AC50: 12.6 µM (inconclusive)
Cytochrome P450 1A2
  AC50: 28.2 µM (inconclusive)

## COc1ccc(NS(=O)(=O)c2ccc3[nH]c(COc4cccc5ccccc45)nc3c2)cc1
[12]
  AC50: 3.87 µM (active)
[5]
  CC50: 32.6 µM (active)
[13]
  EC50: 6.33 µM (active)
Streptococcus
  EC50: 91 µM (active)

## O=C1CC(=C(c2ccccc2)c2ccccc2)C(=O)N1CCCCN1CCN(c2ccccc2)CC1
[5]
  CC50: > 40 µM (active)

## BrC(/C=C\c1ccccc1)=N/Nc1nc(N2CCOCC2)nc(N2CCOCC2)n1
[1]
  EC50: > 260 µM (inactive)

## Cc1ccc(NC2CCCN(C(=O)c3cn4cccc(C)c4n3)C2)cc1C (centres undefined)
[2]
  AC50: 9.91 µM (active)

## FC(F)(F)c1cccc(NC(S)=NCc2ccccn2)c1
[1]
  EC50: > 260 µM (inactive)

## COC(=O)C1=C(C)N=C2SC(C#N)=C(N)N2C1c1cccc(OC)c1 (centres undefined)
[14]
  EC50: > 112 µM (not active)
[15]
  EC50: > 300 µM (not active)
[16]
  EC50: > 300 µM (not active)
[17]
  EC50: > 112 µM (not active)

## O=C(NN=C1CCCC1)c1cc(-c2ccccc2)[nH]n1
[2]
  AC50: 16.9 µM (active)

## O=C(NNS(=O)(=O)c1ccc(F)cc1)c1cc2ccccc2cc1O
[2]
  AC50: 4.07 µM (active)

## Cc1sc2ncnc(Oc3ccc(-n4ccnc4)cc3)c2c1C
[5]
  CC50: > 40 µM (active)

## CC1(CCC(=O)N2CCCC(Nc3ccc(F)cc3)C2)CC1 (centres undefined)
[2]
  AC50: 5.27 µM (active)

## COc1ccc(/C=N/NC(=O)c2ccncc2)cc1CN1CCN(c2ccc(F)cc2)CC1
[14]
  EC50: > 112 µM (not active)
[2]
  AC50: 7.46 µM (active)
[17]
  EC50: > 112 µM (not active)

## Cc1ccc(NC(=O)C2CCN(S(=O)(=O)c3ccc4c(c3)NC(=O)C(C)S4)CC2)cc1C (centres undefined)
[6]
  AC50: 68.3 µM (active)
[7]
  AC50: 6.43 µM (active)
[9]
  AC50: 2.61 µM (active)

## Cc1ccccc1-c1cncnc1NC1CCNCC1
Cytochrome P450 1A2
  AC50: 0.00794 µM (inconclusive)
